{"source": "patent US20100105864A1", "about": "“PROPHYLACTIC OR THERAPEUTIC AGENT FOR DIARRHEA” (priority 2007, published 2010)", "key": {"rat large intestine loop": {"system": "rat large intestine loop", "experiment": "Fluid absorption in rat large intestine loop method (PGE2-stimulated)", "assay_type": "in vivo, rats", "details": "injected into loop 30 minutes after PGE2 i.p.; measured after 1 hour", "description": "The cecum and large intestine were extirpated from the abdomen of each of male SD (IGS) rats under pentobarbital anesthesia, and the site 5 cm away from the area just under the cecum was ligated to form a large intestine loop Immediately after the loop had been formed, PGE2 (4 μg/ml/kg, SIGMA) was intraperitoneally administered, and after 30 minutes, a medicament, which had been dissolved in 2 ml of Tyrode's solution (NaCl: 136.9 mM, KCl: 2.7 mM, CaCl2.2H2O: 1.8 mM, MgCl2.6H2O: 1.04 mM, NaH2PO4.2H2O: 0.04 mM, NaH2PO4.2H2O: 0.04 mM, glucose: 5.55 mM, NaHCO3: 11.9 mM), was injected into the prepared loop (the medicament solution was adjusted so that the pH would be 6.5 to 7.5). As a control, Tyrode's solution free of any medicament (vehicle) was administered. After 1 hour, the loop weight, the loop weight after solution removal, and the loop area were measured to calculate a solution weight per unit area remaining in the loop.\nThe remaining solution amount per unit area was calculated with the following equation:\nRemaining solution amount per unit area(g/cm^2)=(Loop weight−Loop weight after solution removal)/Loop area.\nThe fluid absorption was evaluated by calculating an inhibitory rate from the following equation:\nInhibitory rate(%)=100−(Remaining solution amount per unit area under drug administration−Remaining solution amount per unit area in base(average))/(Remaining solution amount per unit area under vehicle administration(average)−Remaining solution amount per unit area in base(average))×100.\n(Base=case where no stimulation is given (no treatment with PGE2))"}, "Balb/c mice": {"system": "Balb/c mice", "experiment": "Anticancer agent (5-FU)-induced diarrhea model", "assay_type": "in vivo", "description": "To each of Balb/c mice, an anticancer agent was administered to induce diarrhea, and γ-Glu-Val-Gly (hereinafter, referred to as “γEVG”) was studied for its inhibitory effect on diarrhea. To each of 6-week-old Balb/c mice fed with a low protein nutrient diet (4% casein diet) for 1 week, 5-FU (1 mg/animal/day) was intraperitoneally administered for consecutive 3 days. The diarrhea developed around Day 5 after the third administration of the anticancer agent, and the diarrhea appeared in all cases on Day 7. The presence or absence of diarrhea was determined based on the presence or absence of the stool in the tail head area. As the statistical test, a chi-square (χ^2) test for the control group (presence or absence of diarrhea) was employed, and p<0.05 was regarded as significant.\nEach administration of 0.01% γEVG was started in free water intake at the same time as the first administration of the anticancer agent, and continued until completion of the experiment.\nTo each of Balb/c mice, an anticancer agent was administered to induce diarrhea, and a calcium receptor activator (hereinafter, referred to as “CaSR agonist”) was studied for its inhibitory effect on diarrhea. To each of 6-week-old Balb/c mice fed with a low protein nutrient diet (4% casein diet) for 1 week, 5-FU (1 mg/animal/day) was intraperitoneally administered for consecutive 3 days. The diarrhea developed around Day 5 after the third administration of the anticancer agent, and the diarrhea appeared in all cases on Day 7. The presence or absence of diarrhea was determined based on the presence or absence of the stool in the tail head area. As the statistical test, a chi-square (χ^2) test for the control group (presence or absence of diarrhea) was employed, and p<0.05 was regarded as significant.\nThe administration of the CaSR agonist was started in free water intake at the same time as the administration of the low protein nutrient diet, and continued until completion of the experiment."}}, "note": "Marks after values point to notes of the source that are not given here.", "data": [{"smiles": "C[C@@H](NCCCc1cccc(C(F)(F)F)c1)c1cccc2ccccc12", "note": "[cinacalcet, (R)—N-(3-(3-(trifluoromethyl)phenyl)propyl)-1-(1-naphthyl)ethylamine]", "values": [{"measurement": "fluid absorption (inhibitory rate from remaining solution amount per unit area)", "setting": "rat large intestine loop", "result": "promoted fluid absorption"}, {"measurement": "mice that did not exhibit the diarrhea symptom", "setting": "Balb/c mice; 0.05% administration group, free water intake from start of low protein diet, control all 9/9 with diarrhea", "result": "2 out of 5"}, {"measurement": "Ratio of individuals that developed diarrhea", "setting": "Balb/c mice; 0.5% in free water intake from start of low protein diet, control 9/9, p < 0.05 chi-square", "result": "3/5*"}]}]}
